From patent US10556926B2, “Synthetic artificial peptides with antimicrobial effect” (priority 2014, dated 2020) come the findings set out here.

No end group written: not given here.

The test system of one series is E. coli DH5α. To be noted: DH5α, 18 h. The method, then: (§1) The minimum inhibitory concentration (MIC) of the peptides was carried out by way of example against gram(−) E. coli DH5α (and gram(+) Staphylococcus xylosus (both Deutsche Sammlung von Mikroorganismen and Zellkulturen, DSMZ) in a standardized microdilution method according to the general guidelines of the CLSI (Clinical and Laboratory Standards Institute 2006) and EUCAST (European Committee for Antimicrobial Susceptibility Testing of the European Society of Clinical Microbiology and Infectious Diseases 2003) with slight adaptations to the investigation of cationic antimicrobial peptides (Wiegand et al. 2008). The bacteria cells were cultivated in Mueller-Hinton-Boullion (MHB) to an optical density of 0.4 to 0.6 at 600 nm wavelength, corresponding to about 4·10^8 bacteria per ml. Then, the bacteria cultures were diluted to a bacteria concentration of about 1·10^5 bacteria per ml in sterile MHB. Using the peptides, series of 2-fold dilutions starting at 128 μM to the smallest dilution of 0.5 μM in MHB were prepared. The peptide dilutions were mixed with the dilute bacteria cultures in a […] in the chambers of a 96-well polypropylene microtiter plate (Starlab, Hamburg, Germany), so that the peptides were present in an end concentration between 64 μM and 0.25 μM at a bacteria concentration of 5·10^4 bacteria/ml. Sterile MHB served as negative control, and the positive control used as the corresponding bacteria concentration in MHB without the addition of peptide. The microtiter plates were incubated for 18 hours at 37° C. with shaking at 120 rpm in a climatically controlled chamber. After the incubation, the bacteria concentration was determined by renewed absorption measurement at a wavelength of 600 nm.

In the next series the test system is Staphylococcus xylosus. The conditions noted are these: 18 h. The method, then:
as §1

Series [1] deals with human histiocytic lymphoma cell line U937. The experiment in a line: Long-term growth inhibition, minimum toxic concentration (MTC). The method, then:
The cytotoxic potential of the antimicrobial peptides was determined by way of example by reference to the human histiocytic lymphoma cell line U937 (DSMZ). The influence of the peptides on the permeability of the cell membrane and their longer-term growth-inhibiting effect was investigated. 15 ml of RPMI 1640 medium with 2 mM glutamine and 10% FCS (Biochrom, Berlin, Germany) were inoculated with 1·10^5 cells per ml and cultivated for three days at 37° in T75 cell culture bottles (TPP, Trasadingen, Switzerland) with constant gassing with 5% CO2 in a climatically controlled chamber. The medium was admixed with 10 U/ml penicillin and […] streptomycin (both AppliChem, Darmstadt, Germany) to avoid bacterial contaminations, with no further antibiotics being added during the subsequent recultivation. Before each experiment, the cells were washed by centrifugation at 100 g for five minutes and subsequent resuspension in RPMI 1640 medium with 2 mM glutamine and 10% FCS in each case two times and adjusted to a concentration of 1·10^5 cells per ml. Finally, in each case 100 μl of the U937 cells were transferred to the reaction chambers of a sterile 96-well polypropylene microtiter plate and admixed with in each case 100 μl of a prediluted antimicrobial peptide in RPMI 1640 medium without antibiotic addition, such that end concentrations of in each case 5·10^4 cells per ml at peptide concentrations between 0.25 μM and 64 μM were present. The negative control used was samples without antimicrobial peptide, while Triton X-100 (AppliChem) was used in an end concentration of 5% as positive control for the permeabilization. The samples were cultivated for two hours at 37° C. and with continuous gassing with 5% CO2 in a climatically controlled chamber. Then, in each case 100 μl of each sample were removed and transferred to new sterile microtiter plates for determining the direct membrane damage. The remaining 100 μl of the samples were cultivated for at least four further days.
For this purpose, 10 μl of lysing solution were added to in each case 100 μl of cell suspension and incubated for 60 minutes at 37° C. Then, the cell culture supernatants were investigated as described above. The lowest peptide concentration at which complete suppression of the cell growth was established after four days was stipulated as the minimum toxic concentration (MTC).

Series [2] has the same test system. The experiment in a line: Cytotoxicity, direct membrane damage (CytoTox 96), LD50. The class given is cell-based. To be noted: U937, two hours at 37° C., 0.25-64 μM. The method, then: The direct membrane damage was investigated with the help of the CytoTox 96 Non-Radioactive Cytotoxicity Assay (Promega, Mannheim, Germany). For this purpose, the cells were sedimented at 100 g for ten minutes at 4° C., and 50 μl of the resulting culture supernatant were added to 50 μl of the CytoTox substrate mix. After an incubation time of 30 minutes in the dark at room temperature, 50 μl of the CytoTox stopping solution were added to the sample and the absorption was measured at 490 nm. To determine the LD50 value, the measurement value of the negative control was deducted from the absorption values and divided by the measurement value of the permeabilization control. The calculated values were plotted graphically against the peptide concentration and fitted using the Origin pro 8.1 G Software according to a sigmoidal model and the LD50 values were ascertained from this. The calculation was carried out analogously to example 5 by reference to the solution of equation 5.1 for the case y=50, where y in this case corresponds to the relative cytotoxicity in percent and x corresponds to the peptide concentration in μM. Representative graphical evaluations of LD50 values are shown in FIG. 6 by reference to the measurement results for the reference peptides BMAP-27, protamine and KL-helix, and also the peptide O1 according to the invention.

Take KRKILILIKR [C3]: in the series with E. coli DH5α, the “MIC E. coli” value amounted to 16 µM. For the same substance, the “MIC S. xylosus” value in the series with Staphylococcus xylosus came out at 8 µM. Moreover, in series [1], the “Toxicity MTC (minimum toxic concentration)” value (from here on “Toxicity MTC”) is above 64 µM. Besides, in series [2], the “Toxicity LD50” value is above 64 µM.

As to KRKILILIKRK [M1], the “MIC E. coli” value in the series with E. coli DH5α is 8 µM. Besides, the “MIC S. xylosus” value against Staphylococcus xylosus came out at 2 µM. The “Toxicity MTC” value in series [1] was above 64 µM. Also, the “Toxicity LD50” value in series [2] was above 64 µM.

With KRKILILIKRKR [C2], the “MIC E. coli” value against E. coli DH5α was 16 µM. Also, the “MIC S. xylosus” value in the series with Staphylococcus xylosus came out at 2 µM. The “Toxicity MTC” value in series [1] was above 64 µM. Also, the “Toxicity LD50” value in series [2] is above 64 µM.

KRKILILIKRKRK [C1]: the “MIC E. coli” value against E. coli DH5α worked out at 16 µM. The “MIC S. xylosus” value with Staphylococcus xylosus turned out to be 1 µM. In series [1], the “Toxicity MTC” value is above 64 µM. Also, in series [2], the “Toxicity LD50” value is 61 µM.

As to KRKILILILIKRK [H1], in the series with E. coli DH5α, the “MIC E. coli” value is 8 µM. The “MIC S. xylosus” value against Staphylococcus xylosus amounted to 1 µM. Further, the “Toxicity MTC” value in series [1] was above 64 µM. Also, the “Toxicity LD50” value in series [2] is above 64 µM.

KRKILILILIL [M2]: the “MIC E. coli” value in the series with E. coli DH5α was above 64 µM. Besides, in the series with Staphylococcus xylosus, the “MIC S. xylosus” value was above 64 µM. In series [1], the “Toxicity MTC” value is above 64 µM. In addition, the “Toxicity LD50” value in series [2] was above 64 µM.

In the case of KRKKRK [H6, KRKKRK], the “MIC E. coli” value with E. coli DH5α is above 64 µM. Further, the “MIC S. xylosus” value in the series on Staphylococcus xylosus came to 16 µM. The “Toxicity MTC” value in series [1] is above 64 µM. In addition, in series [2], the “Toxicity LD50” value is above 64 µM.

For KRKLIKRK [H4], the “MIC E. coli” value against E. coli DH5α was above 64 µM. The “MIC S. xylosus” value against Staphylococcus xylosus is above 64 µM. Further, the “Toxicity MTC” value in series [1] is above 64 µM. Also, in series [2], the “Toxicity LD50” value was above 64 µM.

For the substance KRKLILIKRK [H2], in the series on E. coli DH5α, the “MIC E. coli” value was above 64 µM. Further, the “MIC S. xylosus” value with Staphylococcus xylosus is 16 µM. In addition, the “Toxicity MTC” value in series [1] is above 64 µM. For the same substance, the “Toxicity LD50” value in series [2] was above 64 µM.

Take KRKLILKRILIKRK [A2]: in the series with E. coli DH5α, the “MIC E. coli” value came to 16 µM. In the series on Staphylococcus xylosus, the “MIC S. xylosus” value was 8 µM. For the same substance, the “Toxicity MTC” value in series [1] is above 64 µM. For the same substance, the “Toxicity LD50” value in series [2] is above 64 µM.

KRKSGSGSKRK [M6]: the “MIC E. coli” value in the series with E. coli DH5α is above 64 µM. For the same substance, in the series on Staphylococcus xylosus, the “MIC S. xylosus” value is above 64 µM. The “Toxicity MTC” value in series [1] was above 64 µM. The “Toxicity LD50” value in series [2] is above 64 µM.

Regarding LIKRK [N8, LIKRK], in the series with E. coli DH5α, the “MIC E. coli” value was above 64 µM. Moreover, the “MIC S. xylosus” value with Staphylococcus xylosus is above 64 µM. Further, in series [1], the “Toxicity MTC” value is above 64 µM. For the same substance, the “Toxicity LD50” value in series [2] is above 64 µM.

As for LILIKRK [N6, LILIKRK], in the series on E. coli DH5α, the “MIC E. coli” value is above 64 µM. Further, the “MIC S. xylosus” value against Staphylococcus xylosus was above 64 µM. The “Toxicity MTC” value in series [1] was above 64 µM. The “Toxicity LD50” value in series [2] is above 64 µM.

LILKRKRKRKRILI [A5]: the “MIC E. coli” value against E. coli DH5α is above 64 µM. Moreover, in the series on Staphylococcus xylosus, the “MIC S. xylosus” value was above 64 µM. The “Toxicity MTC” value in series [1] was above 64 µM. Also, in series [2], the “Toxicity LD50” value is above 64 µM.

Consider RKILILIKRK [N3], for which the “MIC E. coli” value with E. coli DH5α came to 16 µM. Also, the “MIC S. xylosus” value with Staphylococcus xylosus stood at 4 µM. Besides, the “Toxicity MTC” value in series [1] was above 64 µM. Also, the “Toxicity LD50” value in series [2] is above 64 µM.

On to RKLILKRKRILIKR [A3], for which the “MIC E. coli” value in the series with E. coli DH5α was 16 µM. Moreover, the “MIC S. xylosus” value with Staphylococcus xylosus is 8 µM. In addition, in series [1], the “Toxicity MTC” value was above 64 µM. Moreover, the “Toxicity LD50” value in series [2] was above 64 µM.

Consider RKRKILILIKRK [N2], for which, in the series on E. coli DH5α, the “MIC E. coli” value was determined as 8 µM. The “MIC S. xylosus” value against Staphylococcus xylosus turned out to be 2 µM. Further, the “Toxicity MTC” value in series [1] is above 64 µM. Further, the “Toxicity LD50” value in series [2] is above 64 µM.

As for RKRKLILILIKRKR [A1], the “MIC E. coli” value against E. coli DH5α is 8 µM. Moreover, the “MIC S. xylosus” value in the series on Staphylococcus xylosus worked out at 0.5 µM. Moreover, the “Toxicity MTC” value in series [1] is above 64 µM. Further, the “Toxicity LD50” value in series [2] is above 64 µM.

As to RRRVVVVVRRR [S5], the “MIC E. coli” value in the series with E. coli DH5α amounted to 32 µM. Moreover, the “MIC S. xylosus” value against Staphylococcus xylosus came out at 2 µM. In addition, the “Toxicity MTC” value in series [1] was above 64 µM. In addition, the “Toxicity LD50” value in series [2] was above 64 µM.
